In patent US20240238424A1, “HETEROBIFUNCTIONAL COMPOUNDS AND METHODS OF TREATING DISEASE” (Halda Therapeutics OpCo, Inc., priority 2021, published 2024):

Legend:
GSPT1 = target: T1, GSPT1 (Homo sapiens, UniProt P15170+Q96SW2); assay: GSPT1 HiBit degradation assay; format: cell-based; conditions: Table 3; HEK293 LgBiT cells expressing GSPT1_HiBiT, luminescence after 6 hours
T1 construct: host or cells: HEK293 LgBiT cell line
Procedure, shortened: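 HEK293 cells stably expressing LgBiT and GSPT1-HiBiT, seeded 18-24 h before dosing, were treated with titrated compound plus endurazine (0.5× final) at 37 °C. Luminescence loss after 6 h reflects GSPT1 degradation; DC50 is the concentration giving 50% degradation.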

22RV1 cells = assay: Cellular growth inhibition assay (CTG), 22RV1 cells; format: cell-based; conditions: Homo sapiens, CellTiter-Glo 2.0, day-5
Procedure: Cells were seeded in Poly-D-lysine-treated 384-well white plates, with 25 μL cell suspension at 250 cells/well for continuous treatments, and 1000 cells/well for washout treatments. Plates were spun at 300×g for 3 minutes, and cells were cultured at 37° C. with 5% CO2 in a humidified tissue culture incubator.
After 24 hours, the test compounds were diluted with cell culture medium in 96 deep well plates. DMSO was used as a negative control. A 25 μL aliquot of compound-containing medium was added in each well, at a final top concentration of 10 μM or 30 μM test compound, with 3-fold dilutions. For washout assays, after 4 hours, cell medium with compound was removed, and the cells were washed with 75p L fresh medium. Plates were then spun at 300×g for 3 minutes and replaced with 50 μL fresh medium in each well. Plates were then spun at 300×g for 3 minutes again and cultured at 37° C. with 5% CO2.
At day-0 and day-5 of compound treatments, cell viability was quantified with CellTiter-Glo 2.0 (Promega). After equilibrating cell plates at room temperature for 30 minutes, 25 μL CellTiter-Glo 2.0 reagent was dispensed into each well (on top of 50 μL of cell culture). Plates were mixed on a shaker for 2 minutes at 500 rpm, followed by a 10-minute incubation at room temperature. Luminescence readings were measured with an EnVision Plate Reader. Data was normalized to DMSO treated day-0 cell wells. A four-parameter non-linear regression curve fit was applied to dose-response data in Prism to determine the half maximal growth inhibitory concentration (GI50) of each compound.

T1 sequence (P15170 whole entry): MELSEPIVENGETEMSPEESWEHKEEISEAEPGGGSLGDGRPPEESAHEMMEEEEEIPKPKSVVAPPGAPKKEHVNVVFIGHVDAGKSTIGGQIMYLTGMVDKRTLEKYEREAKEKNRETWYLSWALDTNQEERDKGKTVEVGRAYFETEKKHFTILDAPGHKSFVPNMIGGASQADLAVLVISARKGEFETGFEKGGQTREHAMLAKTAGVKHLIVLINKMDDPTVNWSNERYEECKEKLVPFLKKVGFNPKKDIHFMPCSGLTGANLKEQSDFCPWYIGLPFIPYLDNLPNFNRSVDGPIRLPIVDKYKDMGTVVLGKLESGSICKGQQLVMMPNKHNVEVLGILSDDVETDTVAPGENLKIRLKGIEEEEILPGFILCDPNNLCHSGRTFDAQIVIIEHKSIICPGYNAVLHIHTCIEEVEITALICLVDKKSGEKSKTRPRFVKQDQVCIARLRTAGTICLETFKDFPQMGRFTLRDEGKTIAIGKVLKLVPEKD
T1 sequence (Q96SW2 whole entry): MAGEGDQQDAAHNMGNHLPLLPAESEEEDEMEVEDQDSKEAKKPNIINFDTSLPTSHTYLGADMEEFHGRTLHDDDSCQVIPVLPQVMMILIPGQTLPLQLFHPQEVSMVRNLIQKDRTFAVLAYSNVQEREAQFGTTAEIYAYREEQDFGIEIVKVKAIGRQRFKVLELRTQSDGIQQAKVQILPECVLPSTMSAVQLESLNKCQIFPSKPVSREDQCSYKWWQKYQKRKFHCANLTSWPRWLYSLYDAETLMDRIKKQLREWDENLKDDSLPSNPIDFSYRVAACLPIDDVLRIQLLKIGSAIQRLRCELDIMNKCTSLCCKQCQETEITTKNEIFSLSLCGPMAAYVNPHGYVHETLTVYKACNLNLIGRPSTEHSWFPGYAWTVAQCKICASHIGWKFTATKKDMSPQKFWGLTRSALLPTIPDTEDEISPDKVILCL
T1 sequence (Q16531 whole entry partner): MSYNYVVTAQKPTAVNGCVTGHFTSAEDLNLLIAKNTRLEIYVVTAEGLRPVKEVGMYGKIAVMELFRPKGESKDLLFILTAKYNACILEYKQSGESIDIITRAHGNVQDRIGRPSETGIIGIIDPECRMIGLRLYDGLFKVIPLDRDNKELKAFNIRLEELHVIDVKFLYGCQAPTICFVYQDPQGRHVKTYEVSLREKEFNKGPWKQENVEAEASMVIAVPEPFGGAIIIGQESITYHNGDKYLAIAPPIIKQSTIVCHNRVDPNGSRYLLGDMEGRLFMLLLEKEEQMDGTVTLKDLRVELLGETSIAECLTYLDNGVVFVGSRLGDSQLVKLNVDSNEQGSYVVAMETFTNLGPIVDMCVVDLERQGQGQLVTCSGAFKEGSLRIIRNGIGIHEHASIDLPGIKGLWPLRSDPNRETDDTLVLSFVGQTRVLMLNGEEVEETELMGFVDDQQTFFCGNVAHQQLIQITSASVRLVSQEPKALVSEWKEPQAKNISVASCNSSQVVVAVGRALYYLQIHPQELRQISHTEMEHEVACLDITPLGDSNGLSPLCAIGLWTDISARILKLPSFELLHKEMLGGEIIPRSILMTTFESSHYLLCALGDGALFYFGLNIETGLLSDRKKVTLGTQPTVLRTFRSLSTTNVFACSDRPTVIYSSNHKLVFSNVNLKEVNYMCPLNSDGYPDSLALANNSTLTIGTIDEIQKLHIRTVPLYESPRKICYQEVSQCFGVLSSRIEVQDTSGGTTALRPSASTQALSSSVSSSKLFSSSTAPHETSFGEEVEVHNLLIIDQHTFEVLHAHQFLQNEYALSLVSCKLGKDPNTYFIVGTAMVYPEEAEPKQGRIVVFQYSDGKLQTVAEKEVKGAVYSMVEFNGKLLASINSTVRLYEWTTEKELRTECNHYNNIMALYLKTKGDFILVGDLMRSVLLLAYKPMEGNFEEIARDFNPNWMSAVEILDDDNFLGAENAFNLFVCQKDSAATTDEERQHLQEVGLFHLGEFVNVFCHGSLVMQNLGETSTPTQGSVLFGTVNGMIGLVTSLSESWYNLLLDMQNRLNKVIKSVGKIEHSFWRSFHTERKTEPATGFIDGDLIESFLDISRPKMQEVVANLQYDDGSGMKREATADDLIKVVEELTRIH

CC1(C)[C@H](NC(=O)c2ccc(OCCOCCOCCOCCOCCOCCOCCOc3cc(Cl)cc(NC(=O)NCc4ccc5c(c4)CN(C4CCC(=O)NC4=O)C5=O)c3)cc2)C(C)(C)[C@H]1Oc1ccc(C#N)c(Cl)c1 (some centres unmarked) [Compound I-19, N-((1r,3r)-3-(3-chloro-4-cyanophenoxy)-2,2,4,4-tetramethylcyclobutyl)-4-((20-(3-chloro-5-(3-((2-(2,6-dioxopiperidin-3-yl)-1-oxoisoindolin-5-yl)methyl)ureido)phenoxy)-3,6,9,12,15,18-hexaoxaicosyl)oxy)benzamide]
DC50 (GSPT1): 250 to 5000 nM | GI50 (22RV1 cells): < 100 nM

CC1(C)[C@H](NC(=O)c2ccc(OCCOCCOCCOCCOCCOCCOCCOCCOCCOc3cc(Cl)cc(NC(=O)NCc4ccc5c(c4)CN(C4CCC(=O)NC4=O)C5=O)c3)cc2)C(C)(C)[C@H]1Oc1ccc(C#N)c(Cl)c1 (some centres unmarked) [Compound I-20, N-[3-(3-chloro-4-cyano-phenoxy)-2,2,4,4-tetramethyl-cyclobutyl]-4-[2-[2-[2-[2-[2-[2-[2-[2-[2-[3-chloro-5-[[2-(2,6-dioxo-3-piperidyl)-1-oxo-isoindolin-5-yl]methylcarbamoylamino]phenoxy]ethoxy]ethoxy]ethoxy]ethoxy]ethoxy]ethoxy]ethoxy]ethoxy]ethoxy]benzamide]
DC50 (GSPT1): 250 to 5000 nM | GI50 (22RV1 cells): < 100 nM

CC1(C)[C@H](NC(=O)c2ccc(OCCOCCOCCOCCOCCOCCOCCOCCOCCOCCOCCOc3cc(Cl)cc(NC(=O)NCc4ccc5c(c4)CN(C4CCC(=O)NC4=O)C5=O)c3)cc2)C(C)(C)[C@H]1Oc1ccc(C#N)c(Cl)c1 (some centres unmarked) [Compound I-21, N-[3-(3-chloro-4-cyano-phenoxy)-2,2,4,4-tetramethyl-cyclobutyl]-4-[2-[2-[2-[2-[2-[2-[2-[2-[2-[2-[2-[3-chloro-5-[[2-(2,6-dioxo-3-piperidyl)-1-oxo-isoindolin-5-yl]methylcarbamoylamino]phenoxy]ethoxy]ethoxy]ethoxy]ethoxy]ethoxy]ethoxy]ethoxy]ethoxy]ethoxy]ethoxy]ethoxy]benzamide]
DC50 (GSPT1): 250 to 5000 nM | GI50 (22RV1 cells): 100 to 1000 nM

CC1(C)[C@H](NC(=O)c2ccc(OCCOCCOCCOCCOCCOCCOCCc3cc(Cl)cc(NC(=O)NCc4ccc5c(c4)CN(C4CCC(=O)NC4=O)C5=O)c3)cc2)C(C)(C)[C@H]1Oc1ccc(C#N)c(Cl)c1 (some centres unmarked) [Compound I-22, N-((1r,3r)-3-(3-chloro-4-cyanophenoxy)-2,2,4,4-tetramethylcyclobutyl)-4-((20-(3-chloro-5-(3-((2-(2,6-dioxopiperidin-3-yl)-1-oxoisoindolin-5-yl)methyl)ureido)phenyl)-3,6,9,12,15,18-hexaoxaicosyl)oxy)benzamide]
DC50 (GSPT1): < 250 nM | GI50 (22RV1 cells): < 100 nM
